Test results as given in US12011450B2, “Polyethylene glycol-conjugated glucocorticoid prodrugs and compositions and methods thereof” (Board of Regents of the University of Nebraska, priority 2015, dated 2024).
“Also recorded” adds a separate entry of the source.

Tests used:
[1] = tested on: NZB/W F1 mice kidneys; assay: Histological evaluation of PAS-stained kidney sections; type: in vivo; details: 2-month treatment end point
[2] = tested on: MCP-1, IFN-β, IFN-γ; assay: Serum inflammatory cytokine/chemokine analysis; type: in vivo, mice; details: end of 2-month treatment
[3] = tested on: anti-dsDNA IgG; assay: Serum anti-dsDNA IgG level; type: in vivo, mice; details: 4 and 8 weeks post-treatment initiation
[4] = tested on: NZB/W F1 mice; details: mouse, in vivo
[5] = tested on: NZB/W F1 mice; details: mouse, in vivo; remark: listed apart in the source
[6] = tested on: NZB/W F1 mice; details: mouse, in vivo; remark: listed apart in the source

- total serum IgG level [5]: significant drop of serum IgG value
SMILES: C[C@@H]1C[C@H]2[C@@H]3CCC4=CC(=O)C=C[C@]4(C)[C@@]3(F)[C@@H](O)C[C@]2(C)[C@@]1(O)C(=O)COP(=O)([O-])[O-].[Na+].[Na+] [Dex, dexamethasone 21-phosphate disodium]
- glomeruli with histological abnormities [1]: 40%
- mice graded as severe glomerulonephritis (scored 3 and 4 points) ([1]; 4-point scale): more than 40%
- change in serum MCP-1, IFN-β and IFN-γ values [2]: did not induce the improvement
- serum anti-dsDNA IgG level [3]: significantly reduce; also recorded: significantly reduced the antibody level
- peripheral white blood cell (WBC) counts [4]: lower than the saline group, even though there was no significant difference
- adrenal gland mass [6]: significantly lower than the PEG-DiDex group
